What is called AC50 is the concentration giving half of the maximal activity seen.

Consider ten compounds from ChEMBL document CHEMBL5291721, “A preclinical secondary pharmacology resource illuminates target-adverse drug reaction associations of marketed drugs” (Nat Commun, 2023).

For one assay, the target named is T1, Adenosine receptor A1 (Homo sapiens, UniProt P30542).
T1 sequence (P30542 whole entry): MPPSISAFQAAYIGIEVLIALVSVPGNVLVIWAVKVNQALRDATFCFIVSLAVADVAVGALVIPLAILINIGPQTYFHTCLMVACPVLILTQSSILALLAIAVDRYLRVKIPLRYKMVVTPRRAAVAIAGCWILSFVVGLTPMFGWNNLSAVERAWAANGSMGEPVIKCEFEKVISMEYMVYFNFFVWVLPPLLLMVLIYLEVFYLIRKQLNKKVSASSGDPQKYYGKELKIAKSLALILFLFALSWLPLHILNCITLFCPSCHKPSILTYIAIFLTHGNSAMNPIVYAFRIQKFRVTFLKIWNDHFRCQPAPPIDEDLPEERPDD

The target in the next assay is T2, Adenosine receptor A3 (Homo sapiens, UniProt P0DMS8).
T2 sequence (P0DMS8 whole entry): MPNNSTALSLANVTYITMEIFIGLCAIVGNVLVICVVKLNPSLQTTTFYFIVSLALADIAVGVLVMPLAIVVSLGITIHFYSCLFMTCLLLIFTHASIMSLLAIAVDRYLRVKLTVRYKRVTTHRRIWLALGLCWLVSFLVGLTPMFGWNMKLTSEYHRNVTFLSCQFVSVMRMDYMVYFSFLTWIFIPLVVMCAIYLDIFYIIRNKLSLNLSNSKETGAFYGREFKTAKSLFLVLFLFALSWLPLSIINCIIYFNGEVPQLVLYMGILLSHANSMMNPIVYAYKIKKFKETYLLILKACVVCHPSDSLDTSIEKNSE

For assay [1], the target named is T3, Alpha-2A adrenergic receptor (Homo sapiens, UniProt P08913).
T3 sequence (P08913 whole entry): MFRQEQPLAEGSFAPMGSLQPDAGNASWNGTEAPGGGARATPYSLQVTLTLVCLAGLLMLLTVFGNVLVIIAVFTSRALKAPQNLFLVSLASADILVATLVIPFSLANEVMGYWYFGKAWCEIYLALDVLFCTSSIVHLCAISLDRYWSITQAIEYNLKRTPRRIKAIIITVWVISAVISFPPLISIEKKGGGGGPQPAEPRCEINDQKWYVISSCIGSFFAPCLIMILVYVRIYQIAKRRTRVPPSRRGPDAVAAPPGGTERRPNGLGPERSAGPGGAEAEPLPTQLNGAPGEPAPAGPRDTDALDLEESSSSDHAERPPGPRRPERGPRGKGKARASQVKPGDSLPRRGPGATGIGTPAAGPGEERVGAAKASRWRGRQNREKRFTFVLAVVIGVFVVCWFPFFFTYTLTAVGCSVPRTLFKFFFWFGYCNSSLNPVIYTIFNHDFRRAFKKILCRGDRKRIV
Type of assay: functional, cell-based.

The target of assay [2] is T4, Muscarinic acetylcholine receptor M2 (Homo sapiens, UniProt P08172).
T4 sequence (P08172 whole entry): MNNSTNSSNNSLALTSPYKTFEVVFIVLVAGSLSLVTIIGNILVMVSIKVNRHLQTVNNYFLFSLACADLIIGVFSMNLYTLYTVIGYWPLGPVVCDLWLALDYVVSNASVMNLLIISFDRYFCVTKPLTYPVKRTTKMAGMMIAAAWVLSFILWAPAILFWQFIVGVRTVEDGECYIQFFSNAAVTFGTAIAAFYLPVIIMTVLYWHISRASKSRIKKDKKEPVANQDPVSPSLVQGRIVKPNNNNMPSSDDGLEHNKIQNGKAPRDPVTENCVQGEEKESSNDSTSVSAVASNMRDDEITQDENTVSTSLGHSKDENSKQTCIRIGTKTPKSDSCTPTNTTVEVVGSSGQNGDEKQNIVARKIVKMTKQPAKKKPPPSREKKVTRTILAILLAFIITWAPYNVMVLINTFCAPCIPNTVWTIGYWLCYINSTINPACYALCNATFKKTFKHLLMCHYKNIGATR
Type of assay: functional, cell-based.

Assay [3] concerns the target T4, Muscarinic acetylcholine receptor M2.
Assay [4] deals with Neuronal acetylcholine receptor subunit alpha-4 (Homo sapiens, UniProt P43681).
The target of another assay is D(1A) dopamine receptor (Homo sapiens, UniProt P21728). Type of assay: functional, cell-based.
The target of assay [5] is Voltage-gated inwardly rectifying potassium channel KCNH2 (Homo sapiens, UniProt Q12809). Type of assay: functional. The following applies: read-out: AC50.
The target in the next assay is Motilin receptor (Homo sapiens, UniProt O43193).
Assay [6] has as its target Delta-type opioid receptor (Homo sapiens, UniProt P41143).
Assay [7] deals with 3',5'-cyclic-AMP phosphodiesterase 4D (Homo sapiens, UniProt Q08499). Type of assay: functional.
For assay [8], the target named is T5, Amine oxidase [flavin-containing] A (Homo sapiens, UniProt P21397).
T5 sequence (P21397 whole entry): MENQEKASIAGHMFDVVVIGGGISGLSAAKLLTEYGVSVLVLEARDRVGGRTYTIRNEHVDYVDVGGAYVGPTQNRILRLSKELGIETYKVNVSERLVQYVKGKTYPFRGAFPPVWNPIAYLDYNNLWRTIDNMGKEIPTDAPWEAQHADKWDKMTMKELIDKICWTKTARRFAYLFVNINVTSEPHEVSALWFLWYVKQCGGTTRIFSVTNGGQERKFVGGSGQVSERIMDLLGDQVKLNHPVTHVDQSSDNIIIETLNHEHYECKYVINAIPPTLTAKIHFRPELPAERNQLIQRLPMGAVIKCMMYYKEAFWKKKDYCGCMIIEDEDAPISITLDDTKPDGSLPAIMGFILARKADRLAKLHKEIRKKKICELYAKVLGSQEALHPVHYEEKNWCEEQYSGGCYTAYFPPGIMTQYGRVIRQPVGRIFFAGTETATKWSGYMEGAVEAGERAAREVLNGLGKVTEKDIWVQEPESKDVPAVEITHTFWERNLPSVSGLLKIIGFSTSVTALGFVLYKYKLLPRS
Type of assay: functional.
Also: assay procedure not described here.

Sequence of Voltage-gated inwardly rectifying potassium channel KCNH2 (Q12809 whole entry): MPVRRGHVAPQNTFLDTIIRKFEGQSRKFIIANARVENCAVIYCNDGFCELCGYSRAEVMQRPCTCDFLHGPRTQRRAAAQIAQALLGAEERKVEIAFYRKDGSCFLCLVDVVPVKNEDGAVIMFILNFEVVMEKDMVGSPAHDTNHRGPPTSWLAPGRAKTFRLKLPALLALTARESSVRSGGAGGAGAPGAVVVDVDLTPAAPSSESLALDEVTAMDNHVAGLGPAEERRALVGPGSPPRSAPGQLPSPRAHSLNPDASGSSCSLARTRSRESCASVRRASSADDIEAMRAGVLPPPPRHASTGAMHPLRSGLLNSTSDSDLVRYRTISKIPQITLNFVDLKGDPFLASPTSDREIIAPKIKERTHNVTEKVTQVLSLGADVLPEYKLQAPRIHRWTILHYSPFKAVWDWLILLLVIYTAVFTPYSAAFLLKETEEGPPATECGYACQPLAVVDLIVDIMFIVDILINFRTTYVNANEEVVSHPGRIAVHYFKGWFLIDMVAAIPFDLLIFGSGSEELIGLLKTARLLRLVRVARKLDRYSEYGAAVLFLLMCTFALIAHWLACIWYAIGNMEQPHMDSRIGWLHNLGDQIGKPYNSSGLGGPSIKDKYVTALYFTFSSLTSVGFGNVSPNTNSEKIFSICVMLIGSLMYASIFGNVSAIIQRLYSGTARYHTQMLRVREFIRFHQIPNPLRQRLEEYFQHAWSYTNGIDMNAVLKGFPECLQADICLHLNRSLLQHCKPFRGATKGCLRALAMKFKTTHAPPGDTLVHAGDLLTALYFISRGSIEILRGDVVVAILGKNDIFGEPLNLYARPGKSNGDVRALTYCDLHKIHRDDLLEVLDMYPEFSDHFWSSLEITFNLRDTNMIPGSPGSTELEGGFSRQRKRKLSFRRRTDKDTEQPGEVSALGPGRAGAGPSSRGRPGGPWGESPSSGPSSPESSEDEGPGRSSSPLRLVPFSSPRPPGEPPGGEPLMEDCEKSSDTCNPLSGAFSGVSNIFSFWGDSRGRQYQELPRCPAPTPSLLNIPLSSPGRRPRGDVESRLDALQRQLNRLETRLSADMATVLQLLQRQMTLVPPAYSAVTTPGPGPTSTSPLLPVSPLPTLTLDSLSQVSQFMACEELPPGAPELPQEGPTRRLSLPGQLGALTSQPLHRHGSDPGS
Sequence of Delta-type opioid receptor (P41143 whole entry): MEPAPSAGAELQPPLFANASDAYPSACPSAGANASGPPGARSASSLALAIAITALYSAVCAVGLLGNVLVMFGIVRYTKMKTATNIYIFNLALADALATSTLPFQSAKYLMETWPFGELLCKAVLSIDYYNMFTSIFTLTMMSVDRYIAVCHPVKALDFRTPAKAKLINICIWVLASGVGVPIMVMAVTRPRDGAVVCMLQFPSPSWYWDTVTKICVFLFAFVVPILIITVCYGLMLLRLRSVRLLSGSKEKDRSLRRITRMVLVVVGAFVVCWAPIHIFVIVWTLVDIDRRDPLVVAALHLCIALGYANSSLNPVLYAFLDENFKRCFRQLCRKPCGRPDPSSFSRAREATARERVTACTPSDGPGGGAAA
Sequence of 3',5'-cyclic-AMP phosphodiesterase 4D (Q08499 whole entry): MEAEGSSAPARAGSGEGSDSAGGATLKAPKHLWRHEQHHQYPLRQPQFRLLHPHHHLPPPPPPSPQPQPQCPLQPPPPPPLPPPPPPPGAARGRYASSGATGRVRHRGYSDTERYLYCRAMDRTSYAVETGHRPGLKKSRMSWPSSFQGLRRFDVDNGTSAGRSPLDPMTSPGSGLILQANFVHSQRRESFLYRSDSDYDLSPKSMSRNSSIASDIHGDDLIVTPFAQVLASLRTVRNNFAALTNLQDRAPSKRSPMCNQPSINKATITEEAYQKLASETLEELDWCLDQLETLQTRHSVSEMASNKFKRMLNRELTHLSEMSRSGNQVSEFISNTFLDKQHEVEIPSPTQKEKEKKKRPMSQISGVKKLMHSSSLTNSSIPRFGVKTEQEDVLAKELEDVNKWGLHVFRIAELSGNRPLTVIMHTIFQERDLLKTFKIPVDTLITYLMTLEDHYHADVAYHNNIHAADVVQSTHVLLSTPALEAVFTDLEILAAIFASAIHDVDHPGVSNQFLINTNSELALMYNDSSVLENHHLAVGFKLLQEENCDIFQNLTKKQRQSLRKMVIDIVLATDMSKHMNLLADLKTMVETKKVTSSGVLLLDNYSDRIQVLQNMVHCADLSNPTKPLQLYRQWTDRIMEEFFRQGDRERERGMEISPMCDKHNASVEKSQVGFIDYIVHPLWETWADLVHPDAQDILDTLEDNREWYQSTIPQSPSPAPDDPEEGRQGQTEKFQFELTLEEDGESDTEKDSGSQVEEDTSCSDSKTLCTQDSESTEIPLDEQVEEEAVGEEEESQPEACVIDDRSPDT
Sequence of D(1A) dopamine receptor (P21728 whole entry): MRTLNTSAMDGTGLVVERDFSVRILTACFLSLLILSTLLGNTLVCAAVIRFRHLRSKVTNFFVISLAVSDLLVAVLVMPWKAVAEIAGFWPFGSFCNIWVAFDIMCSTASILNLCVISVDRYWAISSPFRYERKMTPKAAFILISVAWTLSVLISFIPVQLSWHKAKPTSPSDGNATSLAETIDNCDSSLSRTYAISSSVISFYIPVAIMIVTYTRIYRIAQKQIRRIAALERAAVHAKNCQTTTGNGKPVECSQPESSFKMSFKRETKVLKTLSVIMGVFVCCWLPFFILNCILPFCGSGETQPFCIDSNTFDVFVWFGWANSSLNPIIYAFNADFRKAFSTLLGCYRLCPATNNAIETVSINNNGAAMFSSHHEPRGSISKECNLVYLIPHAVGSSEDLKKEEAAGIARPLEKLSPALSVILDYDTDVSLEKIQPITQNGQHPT
Sequence of Neuronal acetylcholine receptor subunit alpha-4 (P43681 whole entry): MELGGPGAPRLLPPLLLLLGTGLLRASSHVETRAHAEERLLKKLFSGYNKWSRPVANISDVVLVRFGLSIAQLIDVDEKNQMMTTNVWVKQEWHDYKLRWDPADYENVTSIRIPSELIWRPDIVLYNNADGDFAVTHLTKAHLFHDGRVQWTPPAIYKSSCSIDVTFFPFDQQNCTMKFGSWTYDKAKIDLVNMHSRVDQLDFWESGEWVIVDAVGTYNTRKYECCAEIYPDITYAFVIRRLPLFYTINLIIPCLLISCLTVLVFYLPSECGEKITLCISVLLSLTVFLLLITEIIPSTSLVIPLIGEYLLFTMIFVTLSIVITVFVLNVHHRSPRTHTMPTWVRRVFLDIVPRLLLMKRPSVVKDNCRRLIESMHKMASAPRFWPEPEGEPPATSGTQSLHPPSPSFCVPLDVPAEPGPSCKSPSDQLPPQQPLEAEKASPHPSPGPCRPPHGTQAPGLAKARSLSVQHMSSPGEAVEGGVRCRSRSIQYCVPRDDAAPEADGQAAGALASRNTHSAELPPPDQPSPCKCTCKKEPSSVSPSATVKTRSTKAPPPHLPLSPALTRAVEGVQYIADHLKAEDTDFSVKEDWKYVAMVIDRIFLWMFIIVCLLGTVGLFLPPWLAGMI
Sequence of Motilin receptor (O43193 whole entry): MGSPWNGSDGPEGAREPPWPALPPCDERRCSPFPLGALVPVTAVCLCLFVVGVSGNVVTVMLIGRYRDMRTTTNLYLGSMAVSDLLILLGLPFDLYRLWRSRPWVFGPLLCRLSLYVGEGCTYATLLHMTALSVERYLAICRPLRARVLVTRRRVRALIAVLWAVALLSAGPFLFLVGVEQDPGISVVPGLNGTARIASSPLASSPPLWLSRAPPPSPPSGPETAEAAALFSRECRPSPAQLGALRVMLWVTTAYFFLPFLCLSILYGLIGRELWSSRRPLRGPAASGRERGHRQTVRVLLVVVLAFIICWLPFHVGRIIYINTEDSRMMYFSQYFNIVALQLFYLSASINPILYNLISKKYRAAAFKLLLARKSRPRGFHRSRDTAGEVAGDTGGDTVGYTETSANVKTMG

Take `CC[C@H]1OC(=O)[C@H](C)[C@@H](O[C@H]2C[C@@](C)(OC)[C@@H](O)[C@H](C)O2)[C@H](C)[C@@H](O[C@@H]2O[C@H](C)C[C@H](N(C)C)[C@H]2O)[C@](C)(O)C[C@@H](C)CN(C)[C@H](C)[C@@H](O)[C@]1(C)O` [AZITHROMYCIN]: the AC50 is more than 30 µM at Adenosine receptor A1; more than 30 µM at Adenosine receptor A3; more than 10 µM in assay [1]; more than 10 µM in [2]; more than 30 µM in assay [3]; more than 10 µM in [4]. In addition, the concentration at half-maximal activity (AC50) on D(1A) dopamine receptor is more than 10 µM; in assay [5], more than 30 µM; on Motilin receptor it was more than 10 µM; in assay [6], more than 10 µM; in assay [7] it was more than 30 µM; in [8] it was more than 10 µM.
As to `NCC(CC(=O)O)c1ccc(Cl)cc1` (stereo not given) [BACLOFEN], the AC50 at Adenosine receptor A1 was more than 30 µM; at Adenosine receptor A3 it was 4.2 µM; in assay [1] it was more than 30 µM; in [2], more than 30 µM; in assay [3], more than 30 µM; in assay [4] it was more than 30 µM. Moreover, the AC50 (at D(1A) dopamine receptor; in assay [5]; on Motilin receptor; in [6]; in assay [7]; in assay [8]) was more than 30 µM each time.
Take `O=C(OCC(O)CO)c1ccccc1Nc1ccnc2cc(Cl)ccc12` (stereo not given) [GLAFENINE]: the half-maximal activity concentration (AC50) on Adenosine receptor A1 was more than 30 µM; at Adenosine receptor A3, 7.2 µM; in [1], more than 30 µM; in assay [2] it was more than 10 µM; in assay [3] it was 4.3 µM; in assay [4], more than 30 µM. In addition, the AC50 on D(1A) dopamine receptor is more than 30 µM; in [5], 1.4 µM; at Motilin receptor it was 28 µM; in [6] it was more than 30 µM; in assay [7] it was 0.17 µM; in [8] it was more than 30 µM.
`Cc1cccc(Nc2ccccc2C(=O)O)c1C` [MEFENAMIC ACID]: the concentration at half-maximal activity (AC50) is more than 10 µM at Adenosine receptor A1; more than 10 µM on Adenosine receptor A3; more than 10 µM in assay [1]; more than 10 µM in assay [2]; more than 30 µM in assay [3]; more than 10 µM in assay [4]. The concentration at half-maximal activity (AC50) on D(1A) dopamine receptor is more than 10 µM; in assay [5] it was more than 30 µM; at Motilin receptor it was more than 10 µM; in assay [6] it was more than 30 µM; in assay [7], more than 30 µM; in [8], more than 10 µM.
Take `CC1(C)NC(=O)N(c2ccc([N+](=O)[O-])c(C(F)(F)F)c2)C1=O` [NILUTAMIDE]: the half-maximal activity concentration (AC50) (at Adenosine receptor A1; at Adenosine receptor A3; in assay [1]; in assay [2]; in assay [3]; in [4]) was more than 30 µM each time. The AC50 at D(1A) dopamine receptor is more than 30 µM; in [5], more than 30 µM; at Motilin receptor, more than 30 µM; in assay [6], more than 30 µM; in assay [7], 28 µM; in assay [8], more than 30 µM.
As to `CC[C@H]1[C@@H](O)[C@@H]2[C@H](CC[C@]3(C)[C@@H]([C@H](C)CCC(=O)O)CC[C@@H]23)[C@@]2(C)CC[C@@H](O)C[C@@H]12` [OBETICHOLIC ACID], the AC50 on Adenosine receptor A1 was more than 30 µM; at Adenosine receptor A3 it was 23 µM; in assay [1], more than 30 µM; in assay [2], 16 µM; in assay [3], more than 30 µM; in assay [4], more than 30 µM. Besides, the AC50 (on D(1A) dopamine receptor; in assay [5]; at Motilin receptor; in [6]; in assay [7]; in assay [8]) was more than 30 µM each time.
With `COCCCN1CCC(NC(=O)c2cc(Cl)c(N)c3c2OCC3)CC1` [PRUCALOPRIDE], the AC50 (at Adenosine receptor A1; at Adenosine receptor A3; in [1]; in [2]; in assay [3]; in assay [4]) was more than 30 µM each time. Moreover, the AC50 (at D(1A) dopamine receptor; in assay [5]; at Motilin receptor; in [6]; in assay [7]; in [8]) was more than 30 µM in each case.
For `CS(=O)(=O)c1ccc(C2=C(c3ccccc3)C(=O)OC2)cc1` [ROFECOXIB], the half-maximal activity concentration (AC50) on Adenosine receptor A1 is more than 30 µM; at Adenosine receptor A3, more than 30 µM; in [1], more than 30 µM; in assay [2] it was more than 30 µM; in [3], more than 30 µM; in assay [4], more than 10 µM. The AC50 is more than 10 µM at D(1A) dopamine receptor; more than 30 µM in assay [5]; more than 10 µM on Motilin receptor; more than 10 µM in assay [6]; more than 30 µM in [7]; more than 10 µM in assay [8].
As for `CO[C@H]1C[C@@H]2CC[C@@H](C)[C@@](O)(O2)C(=O)C(=O)N2CCCC[C@H]2C(=O)O[C@H]([C@H](C)C[C@@H]2CC[C@@H](O)[C@H](OC)C2)CC(=O)[C@H](C)/C=C(\C)[C@@H](O)[C@@H](OC)C(=O)[C@H](C)C[C@H](C)/C=C/C=C/C=C/1C` [SIROLIMUS], the AC50 is more than 30 µM on Adenosine receptor A1; 21.3 µM at Adenosine receptor A3; more than 10 µM in assay [1]; more than 10 µM in assay [2]; more than 30 µM in assay [3]; more than 10 µM in assay [4]. The half-maximal activity concentration (AC50) is more than 10 µM at D(1A) dopamine receptor; more than 30 µM in [5]; more than 10 µM at Motilin receptor; more than 30 µM in assay [6]; more than 30 µM in assay [7]; 5.6 µM in [8].
As for `Cc1cn([C@H]2C=C[C@@H](CO)O2)c(=O)[nH]c1=O` [STAVUDINE], the AC50 is more than 30 µM on Adenosine receptor A1; more than 30 µM on Adenosine receptor A3; more than 10 µM in assay [1]; more than 10 µM in [2]; more than 30 µM in assay [3]; more than 10 µM in assay [4]. In addition, the AC50 is more than 10 µM on D(1A) dopamine receptor; more than 30 µM in assay [5]; more than 10 µM at Motilin receptor; more than 10 µM in assay [6]; more than 30 µM in [7]; more than 30 µM in assay [8].
